Results from patent US10960036B2, “Pharmaceutical composition for preventing and treating alpha herpes virus infection, containing, as active ingredient, Elaeocarpus sylvestris extract or fraction thereof” (priority 2016, dated 2021).

Tested on: varicella-zoster virus (VZV)
Assay: Expression of VZV replication-related genes (gB, ORF62) in infected MRC-5 cells, real-time PCR
Assay type: cell-based
Details: 50 μg/mL, 3 days after infection
Protocol: Viruses used to measure anti-replication activity were varicella-zoster virus (VZV), herpes simplex virus-1 (HSV-1) and herpes simplex virus-2 (HSV-2), which were obtained from the American Type Culture Collection (ATCC), and MRC-5 and Vero cells were also obtained from the ATCC and cultured. In a 5% CO2 incubator at 37° C., Vero cells were cultured in RPMI1640 medium containing 10% fetal bovine serum and 25 mM HEPES (2-[4-(2-hydroxyethyl) piperazin-1-yl] ethanesulfonic acid), and MRC-5 cells were cultured in MEM medium containing 10% fetal bovine serum and 25 mM HEPES.
Next, on 3 days after the infection, the cells were collected, and the inhibitory effect on viral replication was analyzed by real-time PCR using VZV glycoprotein B (gB) and open reading frame 62 (ORF62) DNAs.
MRC-5 cells were infected with VZV by culturing them with VZV-infected cells at a cell-to-cell ratio of 1:8, and treated with the Elaeocarpus sylvestris extract and its fractions (extract, hexane (Hx), dichloromethane (MC), ethyl acetate (EA), butanol (BuOH), and distilled water (DW) 50 μg/mL). On 3 days after the infection, the cells were collected, and the inhibitory effect against viral replication was analyzed by real-time PCR using VZV glycoprotein B (gB) and open reading frame 62 (ORF62) DNAs.
In order to analyze the VZV replication inhibitory effect and target of Elaeocarpus sylvestris extract components, MRC-5 cells were infected with VZV by culturing them with VZV-infected cells at a cell-to-cell ratio of 1:8, and treated with 50 μg/mL of each of Elaeocarpus sylvestris extract fractions (DS-1, DS-2, DS-3 and DS-4). On 3 days after the infection, the cells were collected, and the viral replication inhibitory effect of the fractions was analyzed by real-time PCR using VZV glycoprotein B (gB) and open reading frame 62 (ORF62) DNAs.

Compound	expression of VZV glycoprotein B (gB)	expression of VZV open reading frame 62 (ORF62)
O=C1O[C@H]2[C@@H]3OC(=O)c4cc(O)c(O)c(O)c4-c4c(cc(O)c(O)c4O)C(=O)OC[C@H]2O[C@@H](OC(=O)c2cc(O)c(O)c(O)c2)[C@@H]3OC(=O)c2cc(O)c(O)c3c2[C@@H]2C1=CC(=O)[C@](O)(O3)C2(O)O [DS-3, Geraniin]	decreased	decreased
COC(=O)c1cc(O)c(O)c(O)c1 (single isomer, unassigned) [DS-1, Methyl gallate]	decreased	decreased
Casuarictin [DS-4]	decreased	decreased
COC(=O)c1cc(O)c(O)c(O)c1 (single isomer, unassigned) [DS-2, Methyl gallate]	decreased	decreased
